“Also recorded” adds a separate entry of the source.

Data set [1] has as its system PC12 cells. Nature of the data set: Generation of hydrogen peroxide in PC12 cells to which SNAP was added (DCFH, FACS). The data set is classed as cell-based, rat. As to conditions: for Amounts of generated H2O2 (% log fluorescence of control): n = 3. Here is the method:
PC12 cells (derived from rats, chromaffin tumor) were cultured and subcultured in a 100 mm dish (made of Corning) coated with polylysine and containing a DMEM medium supplemented with 10% FCS and 5% horse serum (product of Sigma). Briefly, PC12 cells (1×10^6 cells/dish) were seeded in a 100 mm dish coated with polylysine. In order to induce differentiation of the PC12 cells, the cells were grown for 7 days in a DMEM medium containing 5% FCS, 50 ng/ml NGF, and 1% horse serum. The PC12 cells were then peeled off through pipetting and suspended in a suitable medium to prepare a cell suspension. The cell suspension was seeded into each well of a […], polylysine-coated 96-well dish (1×10^4 cells/well). After adhesion of the cells was confirmed, the following procedure was performed.
The thus-adhered PC12 cells were placed in a DMEM medium. To the cells were added 10 μM of SNAP and 2.5 μM of compound A. For control groups, only SNAP was added. Each sample was incubated for 3 hours. Thereafter, a solution of DCFH-DA (Molecular Probes, Inc.) in DMSO (1 mg/413 μl) which had been prepared in advance was added to each PC12-containing sample so that a final concentration of 5 μM was obtained, and the samples were then incubated for 30 minutes. The cells were removed using trypsin-EDTA, and recovered via centrifugation (1,000 rpm×5 min.). The recovered cells were suspended in 50 μl of PBS(-) while being cooled with ice. The amount of intracellular hydrogen peroxide was determined using a flow cytometer; The cell suspension was subjected to FACS (fluorescence-activated cell sorting), and the amount of the fluorescent substance, […], which had been oxidized by peroxides was measured.

The test system of data set [2] is PC12 cells. Description: Viability of PC12 cells in the presence of Aβ (MTT method). The data set is classed as cell-based, rat. As to conditions: for Suppression of neuron death caused by Aβ (in words): Aβ 10 μM, compound 0.1, 1 or 2.5 μM, PC12; for viability at 0.1 µM / viability at 1 µM / viability at 2.5 µM: Rattus norvegicus, PC-12, 48 h, read-out: Viability of cells (% of control). How it is done:
PC12 cells (derived from rats, chromaffin tumor) were cultured and subcultured in a 100 mm dish (made of Corning) coated with polylysine and containing a DMEM medium supplemented with 10% FCS and 5% horse serum (product of Sigma). Briefly, PC12 cells (1×10^6 cells/dish) were seeded in a 100 mm dish coated with polylysine. In order to induce differentiation of the PC12 cells, the cells were grown for 7 days in a DMEM medium containing 5% FCS, 50 ng/ml NGF, and 1% horse serum. The PC12 cells were then peeled off through pipetting and suspended in a suitable medium to prepare a cell suspension. The cell suspension was seeded into each well of a polylysine-coated 96-well dish (1×10^4 cells/well). Subsequently, Aβ (Bachem Feinchmikalien AG) was added so that a final concentration of 10 μM was achieved. Compound A was also added so that a final concentration of 0.1, 1.0, or 2.5 μM was achieved. […] The cells were cultured for 48 hours from the addition of compound A or compound B.
An MTT reagent (3-(4,5-dimethylthiazole-2-yl)-2,5-diphenyl tetrazolium bromide) was added to the thus-treated cells, incubation was performed for 4 hours, and the cells were lysed. The subsequent procedure was performed using a so-called MTT method, which employs colorimetry based on a reduction reaction of the reagent, to thereby obtain the viability of the cells in the suspension (Behl, C. et al., Cell, 77: 817-827, 1994). [drawing 1]
Background: Tetrazolium assays rely on reduction of a dye to a coloured formazan, in cell work by metabolically active cells.

The subject of data set [3] is glutathione peroxidase-like activities. As to conditions: stated in description of control compound; cited from earlier work.
Data set [4] can be described thus: LD50 in mice. Particulars: mouse, in vivo, oral. The source says: (§1) Toxicity of compound A has been studied by obtaining LD50 values in mice and rats.
A short description of data set [5]: LD50 in rats. Particulars: rat, in vivo.
Text: as §1

Data set [6] has as its system mice or rats. Description: Adverse side effects at high dose in mice or rats. The data set is classed as in vivo.

In the case of `CC(=O)NC(C(=O)O)C(C)(C)SN=O` (racemic) [SNAP, Snitroso-N-acetyl-DL-penicillamine, reference compound], in data set [1] (SNAP 10 μM alone), the “Amounts of generated H2O2 (% log fluorescence of control)” value is 135.8 ± 5.25 % log fluorescence of control. Besides, in data set [1] (SNAP 10 μM, 3 hours), the “Increase of generation of hydrogen peroxide over the level without SNAP” value is given as 1.3-1.4 times.
For orientation: viability means a read-out of living cells in per cent, often relative to untreated cells. For `O=c1c2ccccc2sn1-c1ccccc1` [B, 2-phenyl-1,2-benzothiazol-3(2H)-one, reference compound], in data set [2], the “Suppression of neuron death caused by Aβ (in words)” value is “the death rate could not be suppressed”, the viability at 0.1 µM came to 14 ± 4.5%, the viability at 1 µM was found to be 13 ± 1% and the viability at 2.5 µM is 10 ± 5%. In addition, the Glutathione peroxidase-like activities entry in data set [3] was “having no glutathione peroxidase-like activities”.
By LD50 is commonly meant the dose at which mortality reaches 50%. Consider `O=c1c2ccccc2[se]n1-c1ccccc1` [Compound A, 2-phenyl-1,2-benzisoselenazol-3(2H)-one], for which, in data set [2], the “Suppression of neuron death caused by Aβ (in words)” value is on record as “neuron death suppressed significantly in all cases”, the viability at 0.1 µM was 45 ± 2.1%, the viability at 1 µM came to 59 ± 14.5% and the viability at 2.5 µM was found to be 66 ± 4.5%. Further, in data set [1] (SNAP 10 μM, compound A 2.5 μM, P≤0.0015), the “Suppression of generation of hydrogen peroxide (in words)” value was “significantly suppressed; also recorded: satisfactorily suppressed”. In data set [1] (SNAP 10 μM, compound A 2.5 μM, P ≤ 0.0015 vs SNAP), the “Amounts of generated H2O2 (% log fluorescence of control)” value is 45.7 ± 6.03 % log fluorescence of control. Moreover, the “Suppression of generation of hydrogen peroxide induced by Aβ (in words)” value in data set [1] (concluding statement) is given as “significantly suppresses generation of hydrogen peroxide”. The LD50 in data set [4] is at least 6810 mg/kg. Besides, the median lethal dose (LD50) in data set [5] (ip, intraperitoneal) is 580 mg/kg. In data set [5] (oral), this molecule registered an LD50 of at least 6810 mg/kg. Besides, the Adverse side effects entry in data set [6] is reported as “no problematic adverse side effects were observed”.

The values above are taken from patent publication US5948800A, “Preventive or therapeutic drug for Alzheimer's disease” (A. Nattermann & Cie. GmbH, priority 1996, dated 1999).
